Common to all, as to format: cell-based
Test [1] concerns the target T1, GPR86 (P2Y13) human receptor (Homo sapiens, UniProt Q9BPV8, T179M).
T1 sequence (Q9BPV8 22-354 T179M): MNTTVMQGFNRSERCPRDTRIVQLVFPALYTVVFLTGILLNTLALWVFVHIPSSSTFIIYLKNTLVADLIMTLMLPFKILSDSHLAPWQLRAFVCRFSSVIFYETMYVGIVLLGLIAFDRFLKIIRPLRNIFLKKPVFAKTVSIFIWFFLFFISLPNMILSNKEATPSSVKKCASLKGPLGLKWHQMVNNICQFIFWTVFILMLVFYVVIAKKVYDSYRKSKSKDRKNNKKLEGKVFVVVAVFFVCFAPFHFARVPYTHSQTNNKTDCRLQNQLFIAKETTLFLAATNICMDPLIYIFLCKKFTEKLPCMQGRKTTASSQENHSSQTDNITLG
Nature of the test: Western blot of phosphorylated Erk1 and Erk2 in GPR86-transfected CHO-K1 cells. More on the design: expressed in transfected cells. The following applies: for Erk phosphorylation / time of stimulation giving maximal Erk phosphorylation response: 1 μM; for concentration at which a significant effect on Erk phosphorylation was already observed / concentration giving maximal effect on Erk phosphorylation: 5 min stimulation; for concentration giving maximal effect on Erk phosphorylation: 1 nM to 10 μM tested. As to the method: To investigate changes in the activation status of the MAP kinases Erk1 and Erk2 upon stimulation of the human GPR86 receptor, whole CHO-K1 transfected cell extracts were analysed by Western blotting using a specific antibody for the dually phosphorylated kinases (at Thr^202 and Tyr^204), which are the active forms of Erk. Western Blot Analysis of phosphorylated Erk1 and Erk2 proteins.
GPR86-transfected CHO-K1 cells were seeded at 1.5×10^6 cells/dish. After 24 h, the cells were serum-starved for 2 h in KRH buffer. After stimulation with the agonist, the cells were scraped in 1 ml of PBS pH 7.3 (137 mM NaCl, 2.7 mM KCl, 4.3 mM Na2HPO4.7H2O and 1.4 mM KH2PO4). The cells were recovered by centrifugation and lysed in 150 μl of Laemmli buffer (10% (w/v) glycerol, 5% (v/v) mercaptoethanol, 2.3% (w/v) SDS, 62.5 mM Tris-HCl pH 6.8). The protein concentration was determined using the method of Minamide and Bamburg (27). The same amount of protein for each condition was electrophoresed in a 12% SDS-polyacrylamide gel. Proteins were then transferred overnight at 60 V and 4° C. onto a nitrocellulose membrane using 20 mM Tris, 154 mM glycine, 20% (v/v) methanol as a transfer buffer. Immunodetection was achieved using the enhanced chemiluminescence Western blotting detection system (ECL, Amersham Phammacia Biotech) using a biotinylated-secondary mouse antibody ( 1/25,000). The monoclonal antibody specific for the dually phosphorylated forms of Erk1 and Erk2 (at Thr^202 and Tyr^204) was used at 1/1000-dilution.
In CHO-K1 cells, phosphorylated Erk1 and Erk2 had the predicted molecular mass of 44 and 42 kDa, respectively. […] GPR86-transfected CHO-K1 cells were stimulated during different times or with various concentrations of ADP and 2MeSADP or water (CONT). The effect of 100 ng/ml pertussis toxin (PTx) has been tested at 5 and 30 min in the presence of 1 μM ADP or 2MeSADP. Blotting and immunodetection were achieved as described using the enhanced chemiluminescence Western blotting detection system (ECL, Amersham Pharmacia Biotech).
Background: A western blot detects proteins with antibodies after separation by electrophoresis.

Test [2] deals with CHO-K1 control cells. Nature of the test: Erk phosphorylation in CHO-K1 control cells transfected with empty pEFIN5 vector. Particulars: 1 μM; 5 min, 20 min or 1 h.
Test [3] concerns the target T1, GPR86 (P2Y13) human receptor. Nature of the test: cAMP accumulation in CHO-K1 cells expressing GPR86 in the presence of forskolin. The following applies: forskolin 4 μM. On the set-up: expressed in transfected cells; host or cells: 1321N1 astrocytoma clone AG32 (stably expressing Gα16 from pERAEQ2), G418-selected. As to the method:
Secondary messenger assays, amenable to high throughput screening analysis, are performed including but not limited to the measurement of intracellular levels of cAMP, intracellular inositol phosphate, intracellular diacylglycerol concentrations, arachinoid acid concentration or MAP kinase or tyrosine kinase activity (as decribed above). For example, the GPR86 activity, as measured in a cyclic AMP assay, is quantified by a radioimmunoassay as previously described (26). Results are compared to the baseline level of GPR86 activity obtained from recombinant cells according to the invention in the presence of ADP but in the absence of added modulator compound. Wells showing at least 2 fold, preferably 5 fold, more preferably 10 fold and most preferably a 100 fold or more increase or decrease in GPR86 activity as compared to the level of activity in the absence of modulator, are selected for further analysis.
The potential effect of nucleotides was tested on the cAMP pathway in CHO-K1 cells expressing the human GPR86 receptor. […] CHO-K1 transfected cells were incubated in the presence of various concentrations of ADP and 4 μM forskolin for 10 min. The data represent the mean±S.D. of triplicate experimental points obtained in one representative experiment of three and 2MeSADP in the presence of forskolin 4 μM. […] CHO-K1 transfected cells were incubated in the presence of various concentrations of ADP an 4 μM forskolin for 10 minutes. The data represent the mean+/−S.D. of triplicate experimental points obtained in one representative experiment of three. CHO-K1 transfected cells were pre-incubated with or without 100 ng/ml pertussis toxin for 18 h and then incubated in the presence of ADP (100 nM and 100 μM) or water (CONT) and 4 μM forskolin for 10 min. The data represent the mean±S.D. of triplicate experimental points obtained in one representative experiment of two. The biphasic effect of ADP on adenylyl cyclase has been reproduced in 1321N1 cells transfected with the human GPR86 receptor.

The values below come from patent publication US7422846B2, “Natural ligand for orphan G protein coupled receptor GPR86 and methods of use” (Euroscreen S.A, priority 2001, dated 2008).

For orientation: IC50 means the concentration that inhibits the measured activity by half.

SMILES strings stand for the structures.

As for `CSc1nc(N)c2ncn([C@@H]3O[C@H](COP(=O)(O)OP(=O)(O)O)[C@@H](O)[C@H]3O)c2n1` [2MeSADP, 2-methylthio-ADP], in test [1], the Erk phosphorylation entry is listed as “strong phosphorylation of Erk2”, the “time of stimulation giving maximal Erk phosphorylation response” value is reported as 5 min, the “concentration at which a significant effect on Erk phosphorylation was already observed” value is 10 nM and the “concentration giving maximal effect on Erk phosphorylation” value came out at 1 µM. Also, the “Erk1 or Erk2 phosphorylation” value in test [2] is listed as “not observed”. The “effect on cAMP level at low concentrations” value in test [3] is “Significant inhibitions of the cAMP level”.
Regarding `Nc1ncnc2c1ncn2[C@@H]1O[C@H](COP(=O)(O)OP(=O)(O)O)[C@@H](O)[C@H]1O` [ADP], in test [1], the Erk phosphorylation result is listed as “strong phosphorylation of Erk2”, the “time of stimulation giving maximal Erk phosphorylation response” value is recorded as 5 min, the “concentration at which a significant effect on Erk phosphorylation was already observed” value is given as 10 nM and the “concentration giving maximal effect on Erk phosphorylation” value was 1 µM. Also, the “Erk1 or Erk2 phosphorylation” value in test [2] is “not observed”. In addition, the “effect on adenylyl cyclase / cAMP at high concentration” value in test [3] (10 μM) was “small increase”. Besides, the “effect on cAMP level after pertussis toxin pretreatment” value in test [3] (ADP 100 nM and 100 μM, 18 h pretreatment with 100 ng/ml pertussis toxin) is given as “significant increases of the cAMP level”. Further, in test [3] (at 30 nM), the “maximal inhibition percentage of cAMP” value turned out to be 52±7%. In addition, the “effect on cAMP level at low concentrations” value in test [3] was “Significant inhibitions of the cAMP level”. In addition, in test [3] (10 min, mean±S.D. of three independent experiments, read-out: IC50, inhibition of cAMP level), the IC50 is 1.5 ± 0.6 nM.
